Where a name gives a salt, the structure may show the parent alone.
How the values were obtained:
human MAO-B = molecular target: T1, human MAO-B (Homo sapiens, UniProt P27338); assay: MAO-B activity, colorimetric method, benzylamine substrate; format: biochemical; details: for Specificity of SSAO on MAO-B: ratio of IC50 for MAO-B to IC50 for SSAO; for IC50: recombinant human MAO-B
T1 construct: purchased BD Biosciences (MA, USA)
T1 sequence (P27338 1-520): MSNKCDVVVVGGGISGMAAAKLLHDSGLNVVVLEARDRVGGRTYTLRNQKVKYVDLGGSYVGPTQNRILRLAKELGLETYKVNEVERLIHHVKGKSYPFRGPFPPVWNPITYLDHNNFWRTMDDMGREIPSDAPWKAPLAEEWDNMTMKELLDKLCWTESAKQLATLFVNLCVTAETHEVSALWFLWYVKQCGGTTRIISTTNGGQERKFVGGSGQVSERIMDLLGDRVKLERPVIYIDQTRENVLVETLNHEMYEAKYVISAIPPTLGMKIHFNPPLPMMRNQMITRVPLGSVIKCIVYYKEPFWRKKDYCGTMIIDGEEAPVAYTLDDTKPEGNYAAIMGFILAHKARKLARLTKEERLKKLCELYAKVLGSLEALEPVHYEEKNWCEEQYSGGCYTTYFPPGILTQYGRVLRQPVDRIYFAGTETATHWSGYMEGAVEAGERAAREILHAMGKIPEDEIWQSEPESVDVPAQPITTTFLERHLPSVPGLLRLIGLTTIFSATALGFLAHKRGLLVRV
Procedure: The specificities of the different SSAO inhibitors was tested by determining their abilities to inhibit MAO-A and MAO-B activities in vitro. Recombinant human MAO-A and human MAO-B enzymes were obtained from BD Biosciences (MA, USA). MAO activity was measured using the colorimetric method essentially as described (Holt, A. et al. (1997) Anal. Biochem. 244: 384). A pre-determined amount of inhibitor diluted in 0.2M potassium phosphate buffer, pH 7.6, was added to each well, if required. […] Controls lacked inhibitor. The following agents were then added to a final reaction volume of 200 μL in 0.2M potassium phosphate buffer, pH 7.6: 0.04 mg/ml of MAO-A or 0.07 mg/ml MAO-B enzyme, 15 μL of 10 mM tyramine substrate (for MAO-A), or 15 μL 100 mM benzylamine substrate (for MAO-B), and 50 μL of freshly made chromogenic solution. The chromogenic solution contained 750 μM vanillic acid (Sigma#V-2250), 400 μM 4-aminoantipyrine (Sigma #A-4328) and 12 U/mL horseradish peroxidase (Sigma #P-8250) in order to cause a change of 0.5 OD A490 nm/h. […] The plates were incubated for 60 min at 37° C. The increase in absorbance, reflecting MAO activity, was measured at 490 nm using microplate spectrophotometer (Power Wave 40, Bio-Tek Inst.). Inhibition was presented as percent inhibition compared to control after correcting for background absorbance and IC50 values calculated using GraphPad Prism software. Clorgyline and pargyline (inhibitors of MAO-A and -B, respectively) at 1 μM, were added to some wells as positive controls for MAO inhibition.

| Specificity of SSAO on MAO-B (human MAO-B) | IC50 (human MAO-B) | melting point | Compound |
| --- | --- | --- | --- |
| 2.1 | 0.27 µM | – | NC/C(=C\F)CCc1ccc(F)cc1 [Compound I-99-Z, (Z)-2-(fluoromethylene)-4-(4-fluorophenyl)butan-1-amine] |
| 19 | 0.56 µM | 94 to 95 °C | COc1ccc(CC/C(=C/F)CN)cc1.Cl [Compound I-102-Z, (Z)-3-Fluoro-2-[2-(4-methoxyphenyl)-ethyl]-allylamine hydrochloride] |
| >3333 | > 1000 µM | 213 to 214 °C | Cl.NC/C(F)=C\Cc1ccc(F)cc1 [II-5-E, (E)-2-Fluoro-4-(4-fluorophenyl)-2-butenylamine hydrochloride] |
| 7692 | – | 195 to 196 °C | Cc1cccc(C/C=C(/F)CN)c1.Cl [II-6-E, (E)-2-Fluoro-4-(3-methylphenyl)-2-butenylamine hydrochloride] |
| 4545 | – | 175 to 176 °C | Cl.NC/C(F)=C\Cc1cccc(F)c1 [II-7-E, (E)-2-Fluoro-4-(3-fluorophenyl)-2-butenylamine hydrochloride] |
| 50000 | 1100 µM | 175 to 176 °C | COc1cccc(C/C=C(/F)CN)c1.Cl [II-8-E, (E)-2-Fluoro-4-(3-methoxyphenyl)-2-butenylamine hydrochloride] |
| 12120 | 1200 µM | 120 to 121 °C | Cl.NC/C(F)=C\Cc1ccccc1 [II-9-E, (E)-2-Fluoro-4-phenyl-2-butenylamine hydrochloride] |
| 53670 | 966 µM | 174 to 175 °C | Cl.NC/C(F)=C\Cc1cccc(OC(F)(F)F)c1 [II-10-E, (E)-2-Fluoro-4-(3-trifluoromethoxyphenyl)-2-butenylamine hydrochloride] |
| 7272 | – | – | CN(C)c1cccc(C/C=C(/F)CN)c1.Cl [II-11-E, (E)-2-Fluoro-4-(3-dimethylaminophenyl)-2-butenylamine hydrochloride] |
| 100000 | – | 192 to 193 °C | CSc1cccc(C/C=C(/F)CN)c1.Cl [II-13-E, (E)-2-Fluoro-4-(3-methylthiophenyl)-2-butenylamine hydrochloride] |
| 14286 | – | 196 to 197 °C | CS(=O)(=O)c1cccc(C/C=C(/F)CN)c1.Cl [II-14-E, (E)-2-Fluoro-4-(3-methanesulfonylphenyl)-2-butenylamine hydrochloride] |
| >34780 | > 800 µM | 188 to 189 °C | Cl.NC/C(F)=C\Cc1cccc(SC(F)(F)F)c1 [II-15-E, (E)-2-Fluoro-4-(3-trifluoromethylthiophenyl)-2-butenylamine hydrochloride] |
| >3448 | > 1000 µM | – | COc1cccc(C/C(C)=C(/F)CN)c1 [II-18-E, hydrochloride] |
| 5312 | 850 µM | – | COc1cccc(OC/C=C(/F)CN)c1 [II-19-E, (E)-2-fluoro-4-(3-methoxyphenoxy)but-2-en-1-amine] |

The next lines start with the compound.

| Compound | Specificity of SSAO on MAO-B (human MAO-B) | IC50 (human MAO-B) | melting point |
| --- | --- | --- | --- |
| CCOc1ccc(C/C(=C\F)CN)cc1.Cl [Compound I-2-E, (E)-3-Fluoro-2-(4-ethoxybenzyl)-allylamine hydrochloride] | 189 | 1.7 µM | 167 to 168 °C |
| Cl.NC/C(=C\F)Cc1ccc(Cl)cc1 [Compound I-3-Z, (Z)-2-(4-Chlorobenzyl)-3-fluoro-allylamine hydrochloride] | 3 | 0.084 µM | 145 to 146 °C |
| COc1cccc(C/C(=C/F)CN)c1.Cl [Compound I-5-Z, (Z)-3-Fluoro-2-(3-methoxybenzyl)allylamine hydrochloride] | 64.3 | 1.8 µM | 119 to 120.5 °C |
| CC(C)Oc1ccc(C/C(=C\F)CN)cc1 [Compound I-8-E, (E)-3-Fluoro-2-(4-isopropoxybenzyl)allylamine hydrochloride] | 3070 | 35 µM | – |
| CC(C)Oc1ccc(C/C(=C/F)CN)cc1.Cl [Compound I-8-Z, (Z)-3-Fluoro-2-(4-isopropoxybenzyl)allylamine hydrochloride] | 5400 | 27 µM | 147 to 148 °C |
| CSc1ccc(C/C(=C/F)CN)cc1.Cl [Compound I-9-Z, (Z)-3-Fluoro-2-(4-methylthiobenzyl)allylamine hydrochloride] | 200 | 2.4 µM | 144 to 146 °C |
| CC(C)c1ccc(C/C(=C\F)CN)cc1.Cl [Compound I-14-E, (E)-3-Fluoro-2-(4-isopropylbenzyl)allylamine hydrochloride] | 2.54 | 0.033 µM | 175 to 176 °C |
| CC(C)c1ccc(C/C(=C/F)CN)cc1.Cl [Compound I-14-Z, (Z)-3-Fluoro-2-(4-isopropylbenzyl)allylamine hydrochloride] | 1250 | 9.6 µM | 175 to 176 °C |
| CC(C)(C)c1ccc(C/C(=C/F)CN)cc1.Cl [Compound I-15-Z, (Z)-3-Fluoro-2-(4-tert-butylbenzyl)allylamine hydrochloride] | 5429 | 38 µM | 155 to 156 °C |
| Cl.NC/C(=C\F)Cc1cccc(F)c1 [Compound I-19-Z, (Z)-3-Fluoro-2-(3-fluorobenzyl)allylamine hydrochloride] | 27.6 | 0.69 µM | 120.5 to 121.5 °C |
| NC/C(=C\Cl)CCc1cc(F)cc(C(F)(F)F)c1.O=C(O)C(F)(F)F [Compound I-40-Z, (Z)-3-Chloro-2-(3-fluoro-5-trifluoromethylphenylethyl)allylamine trifluoroacetate] | 185 | 170 µM | 51 to 52 °C |
| COc1ccc(CC/C(=C\Cl)CN)cc1.Cl [Compound I-44-Z, (E)-3-Chloro-2-(4-methoxyphenylethyl)allylamine hydrochloride] | 22 | 16 µM | 138 °C (dec.) |
| CCOc1ccc(CC/C(=C\Cl)CN)cc1.Cl [Compound I-45-Z, (E)-3-Chloro-2-(4-ethoxyphenylethyl)allylamine hydrochloride] | 8.6 | 1.2 µM | 104 to 106 °C |
| CCCCOc1ccc(CC/C(=C\Cl)CN)cc1.Cl [Compound I-47-E, (E)-3-Chloro-2-(4-n-butoxyphenylethyl)allylamine hydrochloride] | 2.5 | 0.42 µM | 132 to 133 °C |
| NC/C(=C\F)CCc1cc(F)cc(C(F)(F)F)c1.O=C(O)C(F)(F)F [Compound I-109-Z, (Z)-3-Fluoro-2-(3-fluoro-5-trifluoromethylphenylethyl)allylamine trifluoroacetate] | 5.9 | 1.6 µM | 56 to 57 °C |

From US20110269811A1, “INHIBITORS OF SEMICARBAZIDE-SENSITIVE AMINE OXIDASE (SSAO) AND VAP-1 MEDIATED ADHESION USEFUL FOR TREATMENT AND PREVENTION OF DISEASES” (priority 2006, published 2011)
